In one data set the test system is PC-3 cells. Description: MTT cell proliferation assay, PC-3. Type of data set: cell-based, human. The note with it: for MTT screening, cell proliferation: PC-3, 30 µM, 72 h, average ± SD; for IC50: Homo sapiens, PC-3, 72 h, MTT. The protocol:
(§1) Cell lines, namely LNCaP, PC-3, T47-D and NHDF were obtained from American Type Culture Collection (ATCC; Manassas, VA, USA) and cultured in 75 cm^2 culture flasks at 37 °C in a humidified air incubator with 5% CO2. LNCaP, PC-3 and T47-D cells, which were used in passages 20th to 27th, 25th to 29th and 10th to 15th, respectively, were cultured in RPMI 1640 medium (Sigma-Aldrich, Inc., St. Louis, MO, USA) with 10% fetal bovine serum (FBS; Sigma-Aldrich, Inc. St. Louis, MO, USA) and 1% of the antibiotic mixture of 10,000 IU/mL penicillin G and […] of streptomycin (Sp, Sigma-Aldrich, Inc. St. Louis, MO, USA). Finally, NHDF cells (Normal Human Dermal Fibroblasts) were cultured in RPMI 1640 medium supplemented with 10% FBS, 2 mM L-glutamine, 10 mM HEPES, 1 mM sodium pyruvate and 1% of an antibiotic/antimycotic mixture (10,000 U/mL penicillin G, 100 mg/mL streptomycin and 25 µg/mL amphotericin B) (Ab; Sigma-Aldrich, Inc. St. Louis, MO, USA), and these cells were used in passages 10 to 12. For all cell types, the medium was renewed every 2–3 days until cells reach nearly the confluence state. Then, they were detached gently by trypsinization (trypsin-EDTA solution: 0.125 g/L of trypsin and 0.02 g/L of EDTA).
(§2) All the stock solutions were prepared by dissolving compounds in dimethyl sulfoxide (DMSO; Sigma-Aldrich, Inc., St. Louis, MO, USA) at 10 mM and stored at 4 °C. From these solutions, the several diluted compounds solutions in different concentrations were freshly prepared in a complete culture medium before each experiment.
(§3) As previously referred, cells were trypsinized after reaching a near confluence state and counted by the trypan blue exclusion assay in a Neubauer chamber. Then, 100 µL of cell suspension/well with an initial density of 2 × 10^4 cells/mL were seeded in 96-well culture plates (Nunc, Apogent, Denmark) and left to adhere for 48 h. After cells adherence, the medium was replaced by the distinct solutions of the compounds in the study (30 µM for preliminary studies and 0.01, 0.1, 1, 10, 50 and 100 µM for concentration–response studies) in the appropriate medium for approximately 72 h. 5-FU and finasteride were used as positive controls and untreated cells were used as the negative control. Each experiment was performed in quadruplicate and independently performed at least two times. The in vitro antiproliferative effects were evaluated by the MTT assay (Sigma-Aldrich, Inc. St. Louis, USA). After the incubation period, the medium was removed and 100 µL of phosphate buffer saline (NaCl 137 mM, KCl 2.7 mM, Na2HPO4 10 mM and KH2PO4 1.8 mM in deionized water and pH adjusted to 7.4) were used to wash the cells. Then, 100 µL of the MTT solution (5 mg/mL) was prepared in the appropriate serum-free medium and was added to each well, followed by incubation for 4 h at 37 °C. Hereafter, the MTT containing medium was removed and the formazan crystals were dissolved in DMSO. Then the absorbance was measured at 570 nm using a microplate spectrophotometer BIO-RAD xMarkTM. Cell viability values were expressed as percentages relative to the absorbance determined in the cells used as negative controls.
(§4) The data are expressed as a mean ± standard deviation (SD) and differences between groups were considered statistically significant when p < 0.05. The IC50 values were determined through sigmoidal fitting analysis with variable slope and considering a 95% confidence level. All data shown are representative of at least two independent experiments.
Background: Formazan colour is commonly taken as a measure of viable cells.

The subject of data set [1] is NHDF cells (Normal Human Dermal Fibroblasts). Briefly: MTT cell proliferation assay, NHDF. Type of data set: cell-based. The note with it: 72 h; for MTT screening, cell proliferation: 30 µM, average ± SD; for IC50: Homo sapiens, MTT. The protocol:
as §1, §2, §3, §4

Another data set has as its system T47-D cells. Briefly: MTT cell proliferation assay, T47-D. The format is cell-based, human. The note with it: 72 h; for MTT screening, cell proliferation: 30 µM, average ± SD; for IC50: Homo sapiens, T47D, MTT. The protocol:
as §1, §2, §3, §4

The test system of a further data set is LNCaP cells. Description: MTT cell proliferation assay, LNCaP. Type of data set: cell-based, human. The settings on record: 72 h; for MTT screening, cell proliferation: 30 µM, average ± SD; for IC50: Homo sapiens, MTT. The protocol:
as §1, §2, §3, §4

From paper PMC9501232, “Novel 4-Azapregnene Derivatives as Potential Anticancer Agents: Synthesis, Antiproliferative Activity and Molecular Docking Studies” (Molecules, 2022) come the findings set out here.

As a reminder, the melting point is the temperature of the solid-liquid transition. By IC50 is commonly meant the concentration at which inhibition is half-maximal. Read a low IC50 as inhibition by little substance.

Consider “4-Azapregn-4-ene-3,20-dione [Compound 2]”, for which the “MTT screening, cell proliferation” value with PC-3 cells is 96.7 ± 9.3 percentage of negative control; in data set [1], 106.1 ± 6.0 percentage of negative control; with T47-D cells it was 137.0 ± 18.0 percentage of negative control; in the data set with LNCaP cells, 58.3 ± 13.6 percentage of negative control.
As to `CC(=O)[C@H]1CCC2C3CCC(=O)[C@](C)(CCC(=O)O)C3CC[C@@]21C` (stereo partly shown) [Compound 1], the melting point was in the range of 168 to 169 °C. The “MTT screening, cell proliferation” value in the data set with PC-3 cells is given as 102.1 ± 5.2 percentage of negative control. Also, the “MTT screening, cell proliferation” value in data set [1] is on record as 100.0 ± 6.0 percentage of negative control. The “MTT screening, cell proliferation” value with T47-D cells was 130.8 ± 20.8 percentage of negative control. Moreover, in the data set with LNCaP cells, the “MTT screening, cell proliferation” value is recorded as 96.4 ± 16.1 percentage of negative control.
For the molecule `C[C@]12CC[C@H]3[C@@H](CC=C4NC(=O)CC[C@@]43C)[C@@H]1CC[C@@H]2C(=O)/C=C/c1ccccc1` [Compound 3a, 21E-(Phenylmethylidene)-4-azapregn-5-ene-3,20-dione], the IC50 was determined as 12.6 µM with PC-3 cells, 64 µM in data set [1], 16.9 µM in the data set with T47-D cells and 27.5 µM in the data set with LNCaP cells. For the same molecule, the “MTT screening, cell proliferation” value with PC-3 cells is listed as 1.4 ± 1.0 percentage of negative control; in data set [1], 25.1 ± 7.4 percentage of negative control; in the data set with T47-D cells, 6.5 ± 5.4 percentage of negative control; in the data set on LNCaP cells it was 6.5 ± 5.3 percentage of negative control.
Consider `C[C@]12CC[C@H]3[C@@H](CC=C4NC(=O)CC[C@@]43C)[C@@H]1CC[C@@H]2C(=O)/C=C/c1ccc([N+](=O)[O-])cc1` [Compound 3c, 21E-[(4-Nitrophenyl)methylidene]-4-azapregn-5-ene-3,20-dione], for which the IC50 worked out at 3.29 µM with PC-3 cells, 6.94 µM in data set [1], 6.56 µM with T47-D cells and 16.3 µM with LNCaP cells. In addition, the “MTT screening, cell proliferation” value with PC-3 cells is reported as 0.7 ± 0.5 percentage of negative control; in data set [1], 20.3 ± 2.8 percentage of negative control; with T47-D cells, 6.7 ± 4.6 percentage of negative control; in the data set with LNCaP cells, 5.2 ± 2.6 percentage of negative control.
With `C[C@]12CCC(=O)C[C@@H]1CC[C@@H]1[C@@H]2CC[C@]2(C)[C@@H](O)CC[C@@H]12` [DHT, 5α-dihydrotestosterone, reference compound], the “MTT screening, cell proliferation” value is 93.1 ± 4.9 percentage of negative control with PC-3 cells, 100.5 ± 7.4 percentage of negative control in data set [1], 90.7 ± 9.4 percentage of negative control in the data set on T47-D cells and 138.9 ± 3.9 percentage of negative control in the data set with LNCaP cells.
On to `CC(=O)[C@H]1CC[C@H]2[C@@H]3CCC4=CC(=O)CC[C@]4(C)[C@H]3CC[C@]12C` [Progesterone, reference compound], for which the “MTT screening, cell proliferation” value is 42.9 ± 5.4 percentage of negative control in the data set with PC-3 cells, 96.6 ± 14.3 percentage of negative control in data set [1], 62.9 ± 6.8 percentage of negative control in the data set with T47-D cells and 64.3 ± 16.1 percentage of negative control in the data set on LNCaP cells.
The matching figures for `C[C@]12CC[C@H]3[C@@H](CCC4=CC(=O)CC[C@@]43C)[C@@H]1CC[C@@H]2O` [Testosterone, reference compound]: 89.5 ± 9.0 percentage of negative control, 94.2 ± 7.3 percentage of negative control, 72.0 ± 4.0 percentage of negative control and 99.2 ± 4.2 percentage of negative control.
